Literature values in patent publication US20060258633A1, “Amorphous tegaserod maleate” (priority 2005, published 2006).

Details: white to off-white crystalline powder

CCCCCNC(=N)N/N=C/c1c[nH]c2ccc(OC)cc12.O=C(O)/C=C\C(=O)O [Tegaserod maleate, 3-(5-methoxy-1H-indole-3-ylmethylene)-N-pentylcarbazimidamide hydrogen meleate]
solubility in ethanol (ethanol): slightly soluble
solubility in water (water): very slightly soluble
